A short description of data set [1]: activity coefficient (dimensionless); of the first substance listed, at infinite dilution; xn = mol fraction of the nth substance listed. As to conditions: Liquid, Chromatography, x1 = 0.
For data set [2] the following is noted: 101.33 kPa, Liquid, Vibrating tube method.

Broadly, the mass density is mass per unit of volume.

± gives the expanded uncertainty stated by the source.

With `O` [water] + CCn1cc[n+](C)c1.N#C[B-](C#N)(C#N)C#N, the activity coefficient in data set [1] (298.15 K) is 2.24 ± 0.15; in data set [1] (308.15 K), 1.99 ± 0.14; in data set [1] (318.15 K), 1.82 ± 0.12; in data set [1] (328.15 K), 1.66 ± 0.11; in data set [1] (338.15 K) it was 1.51 ± 0.1; in data set [1] (348.15 K), 1.38 ± 0.09. Further, the activity coefficient in data set [1] (358.15 K) is 1.29 ± 0.08.

With `CO` [methanol] + CCn1cc[n+](C)c1.N#C[B-](C#N)(C#N)C#N, the activity coefficient in data set [1] (298.15 K) is 1.1 ± 0.07; in data set [1] (308.15 K) it was 1.02 ± 0.06; in data set [1] (318.15 K) it was 0.948 ± 0.06; in data set [1] (328.15 K) it was 0.886 ± 0.056; in data set [1] (338.15 K), 0.835 ± 0.054; in data set [1] (348.15 K) it was 0.788 ± 0.051. In data set [1] (358.15 K), the activity coefficient stood at 0.748 ± 0.049.

As for `C1CCCCCCC1` [cyclooctane] + CCn1cc[n+](C)c1.N#C[B-](C#N)(C#N)C#N, the activity coefficient in data set [1] (298.15 K) was found to be 29.7 ± 2; in data set [1] (308.15 K), 26.6 ± 1.8; in data set [1] (318.15 K), 24.7 ± 1.7; in data set [1] (328.15 K), 22.5 ± 1.5; in data set [1] (338.15 K), 20.8 ± 1.4; in data set [1] (348.15 K), 19.2 ± 1.3. Besides, in data set [1] (358.15 K), the activity coefficient is 17.9 ± 1.2.

As for `C1=CCCCC1` [cyclohexene] + CCn1cc[n+](C)c1.N#C[B-](C#N)(C#N)C#N, the activity coefficient came to 7.25 ± 0.49 in data set [1] (298.15 K); 6.92 ± 0.47 in data set [1] (308.15 K); 6.67 ± 0.45 in data set [1] (318.15 K); 6.44 ± 0.44 in data set [1] (328.15 K); 6.17 ± 0.42 in data set [1] (338.15 K); 6.01 ± 0.41 in data set [1] (348.15 K). Besides, in data set [1] (358.15 K), the activity coefficient was 5.81 ± 0.4.

For `CCCOCCC` [dipropyl ether] + CCn1cc[n+](C)c1.N#C[B-](C#N)(C#N)C#N, the activity coefficient in data set [1] (298.15 K) was determined as 8.54 ± 0.58; in data set [1] (308.15 K), 8.32 ± 0.57; in data set [1] (318.15 K) it was 8.07 ± 0.55; in data set [1] (328.15 K), 7.79 ± 0.53; in data set [1] (338.15 K) it was 7.6 ± 0.5; in data set [1] (348.15 K), 7.43 ± 0.51. For the same compound, the activity coefficient in data set [1] (358.15 K) came out at 7.24 ± 0.49.

Take `Cc1ccccc1` [toluene] + CCn1cc[n+](C)c1.N#C[B-](C#N)(C#N)C#N: the activity coefficient is 1.65 ± 0.11 in data set [1] (298.15 K); 1.67 ± 0.11 in data set [1] (308.15 K); 1.69 ± 0.11 in data set [1] (318.15 K); 1.71 ± 0.11 in data set [1] (328.15 K); 1.73 ± 0.12 in data set [1] (338.15 K); 1.75 ± 0.12 in data set [1] (348.15 K). Further, the activity coefficient in data set [1] (358.15 K) is 1.76 ± 0.12.

`CC(C)=O` [acetone] + CCn1cc[n+](C)c1.N#C[B-](C#N)(C#N)C#N: the activity coefficient in data set [1] (308.15 K) is 0.443 ± 0.036; in data set [1] (318.15 K), 0.454 ± 0.036; in data set [1] (328.15 K), 0.466 ± 0.036; in data set [1] (338.15 K), 0.475 ± 0.037; in data set [1] (348.15 K), 0.488 ± 0.037; in data set [1] (358.15 K), 0.43 ± 0.035.

Take `CCOCC` [diethyl ether] + CCn1cc[n+](C)c1.N#C[B-](C#N)(C#N)C#N: the activity coefficient in data set [1] (298.15 K) was found to be 2.71 ± 0.18; in data set [1] (308.15 K), 2.72 ± 0.19; in data set [1] (318.15 K) it was 2.73 ± 0.19; in data set [1] (328.15 K), 2.74 ± 0.19; in data set [1] (338.15 K), 2.75 ± 0.19; in data set [1] (348.15 K), 2.76 ± 0.19. The activity coefficient in data set [1] (358.15 K) is 2.77 ± 0.19.

Consider `COC(C)(C)C` [2-methoxy-2-methylpropane] + CCn1cc[n+](C)c1.N#C[B-](C#N)(C#N)C#N, for which the activity coefficient worked out at 2.82 ± 0.19 in data set [1] (298.15 K); 2.86 ± 0.19 in data set [1] (308.15 K); 2.9 ± 0.2 in data set [1] (318.15 K); 2.94 ± 0.2 in data set [1] (328.15 K); 2.97 ± 0.2 in data set [1] (338.15 K); 3.01 ± 0.2 in data set [1] (348.15 K). The activity coefficient in data set [1] (358.15 K) was determined as 3.04 ± 0.21.

Turning to `CCCCC` [pentane] + CCn1cc[n+](C)c1.N#C[B-](C#N)(C#N)C#N, the activity coefficient was found to be 22 ± 1.5 in data set [1] (298.15 K); 20.1 ± 1.4 in data set [1] (308.15 K); 19.1 ± 1.3 in data set [1] (318.15 K); 17.6 ± 1.2 in data set [1] (328.15 K); 16.6 ± 1.1 in data set [1] (338.15 K); 15.8 ± 1.1 in data set [1] (348.15 K). For the same compound, the activity coefficient in data set [1] (358.15 K) stood at 14.9 ± 1.

Take `CC1CCCCC1` [methylcyclohexane] + CCn1cc[n+](C)c1.N#C[B-](C#N)(C#N)C#N: the activity coefficient is 24.9 ± 1.7 in data set [1] (298.15 K); 22.7 ± 1.6 in data set [1] (308.15 K); 21.1 ± 1.4 in data set [1] (318.15 K); 19.4 ± 1.3 in data set [1] (328.15 K); 18 ± 1 in data set [1] (338.15 K); 16.9 ± 1.2 in data set [1] (348.15 K). Further, the activity coefficient in data set [1] (358.15 K) was 15.9 ± 1.1.

As for `C#CCCCC` [1-hexyne] + CCn1cc[n+](C)c1.N#C[B-](C#N)(C#N)C#N, the activity coefficient in data set [1] (298.15 K) stood at 3.77 ± 0.26; in data set [1] (308.15 K), 3.76 ± 0.26; in data set [1] (318.15 K) it was 3.76 ± 0.26; in data set [1] (328.15 K) it was 3.75 ± 0.26; in data set [1] (338.15 K), 3.74 ± 0.25; in data set [1] (348.15 K), 3.74 ± 0.25. For the same compound, the activity coefficient in data set [1] (358.15 K) was 3.73 ± 0.25.

As to `CCn1cc[n+](C)c1.N#C[B-](C#N)(C#N)C#N` [1-ethyl-3-methylimidazolium tetracyanoborate], the mass density is given as 1036.27 ± 0.26 kg/m3 in data set [2] (298.15 K); 1028.4 ± 0.25 kg/m3 in data set [2] (308.15 K); 1020.64 ± 0.25 kg/m3 in data set [2] (318.15 K); 1012.97 ± 0.24 kg/m3 in data set [2] (328.15 K); 1005.4 ± 0.24 kg/m3 in data set [2] (338.15 K); 997.91 ± 0.23 kg/m3 in data set [2] (348.15 K). Besides, the mass density in data set [2] (358.15 K) is recorded as 990.51 ± 0.23 kg/m3.

As for `CCCC(C)=O` [pentan-2-one] + CCn1cc[n+](C)c1.N#C[B-](C#N)(C#N)C#N, the activity coefficient was 0.816 ± 0.053 in data set [1] (308.15 K); 0.833 ± 0.054 in data set [1] (318.15 K); 0.847 ± 0.054 in data set [1] (328.15 K); 0.861 ± 0.055 in data set [1] (338.15 K); 0.879 ± 0.056 in data set [1] (348.15 K); 0.796 ± 0.052 in data set [1] (358.15 K).

With `C1CCCCC1` [cyclohexane] + CCn1cc[n+](C)c1.N#C[B-](C#N)(C#N)C#N, the activity coefficient in data set [1] (298.15 K) turned out to be 16.7 ± 1.1; in data set [1] (308.15 K), 15.2 ± 1; in data set [1] (318.15 K), 14.3 ± 1; in data set [1] (328.15 K), 13.2 ± 0.9; in data set [1] (338.15 K), 12.3 ± 0.8; in data set [1] (348.15 K), 11.6 ± 0.8. Moreover, the activity coefficient in data set [1] (358.15 K) was found to be 10.9 ± 0.7.

As to `C1CCOC1` [tetrahydrofuran] + CCn1cc[n+](C)c1.N#C[B-](C#N)(C#N)C#N, the activity coefficient in data set [1] (298.15 K) was 0.686 ± 0.046; in data set [1] (308.15 K), 0.707 ± 0.047; in data set [1] (318.15 K), 0.726 ± 0.048; in data set [1] (328.15 K) it was 0.737 ± 0.049; in data set [1] (338.15 K) it was 0.753 ± 0.05; in data set [1] (348.15 K) it was 0.775 ± 0.051. For the same compound, the activity coefficient in data set [1] (358.15 K) amounted to 0.789 ± 0.051.

As to `C=CCCCCC` [1-heptene] + CCn1cc[n+](C)c1.N#C[B-](C#N)(C#N)C#N, the activity coefficient in data set [1] (298.15 K) amounted to 22 ± 1.5; in data set [1] (308.15 K) it was 20.4 ± 1.4; in data set [1] (318.15 K) it was 19.3 ± 1.3; in data set [1] (328.15 K), 18.3 ± 1.3; in data set [1] (338.15 K) it was 17.3 ± 1.2; in data set [1] (348.15 K), 16.6 ± 1.1. Moreover, the activity coefficient in data set [1] (358.15 K) worked out at 15.7 ± 1.1.

Consider `C=CCCC` [1-pentene] + CCn1cc[n+](C)c1.N#C[B-](C#N)(C#N)C#N, for which the activity coefficient in data set [1] (298.15 K) stood at 9.24 ± 0.63; in data set [1] (308.15 K), 8.83 ± 0.6; in data set [1] (318.15 K), 8.56 ± 0.58; in data set [1] (328.15 K), 8.24 ± 0.56; in data set [1] (338.15 K), 7.97 ± 0.54; in data set [1] (348.15 K), 7.71 ± 0.53. In addition, in data set [1] (358.15 K), the activity coefficient worked out at 7.52 ± 0.51.
